Results published in US8703815B2, “Small molecules that covalently modify transthyretin” (The Scripps Research Institute, priority 2009, dated 2014).
Like-named read-outs stand apart in the source and are kept apart here.

Legend:
WT-TTR [1] = molecular target: T1, WT-TTR (Homo sapiens, UniProt P02766); assay: Fluorimetric assay with recombinant WT-TTR; type: binding
T1 construct: composed of 127-residue β-sheet-rich subunits; made in house; host or cells: E. coli
Protocol: WT-TTR was expressed in an E. coli expression system and purified as described previously. […] The samples were vortexed, and incubated for 18 h at 25° C. […] The excitation slit was set at 5 nm and the emission slit was set at […]. The samples were excited at 328 nm and the emission spectra were collected from 350 to 550 nm. WT-TTR was expressed and purified from an E. coli expression system as described previously. [Lashuel et al., Biochemistry 1999, 38:13560]. […] The samples were vortexed, and incubated for 18 hours at 25° C. […] The excitation slits was set at 5 nm and the emission slits was set at […]. The samples were excited at 328 nm and the emission spectra were collected from 330 to 550 nm (FIG. 4). The time-dependent fluorescence changes were monitored in similar manner (FIG. 5).

K15A-TTR [2] = molecular target: T2, K15A-TTR (Homo sapiens, UniProt P02766, K35A); assay: RP-HPLC analysis of reaction with K15A-TTR homotetramer; type: binding
T2 construct: composed of 127-residue β-sheet-rich subunits; made in house
Excerpt: A strictly analogous study performed with the K15A homotetrameric TTR mutant confirmed that K15 was essential for the observed chemoselective reaction between TTR and Compounds […] (FIG. 1A, bottom trace). […] However, it is important to note that Compounds 1-3 were only slightly less chemoselective (<5% reaction with K15A).
The ability of compounds A1 and A2, auxochromic analogs of previously discussed stilbenes [Klabunde et al., Nat. Struct. Biol. 2000, 7, 312-321; Connelly et al., Curr. Opin. Struc. Biol. 2010, 20, 54-62; Johnson et al., J. Med. Chem. 2008, 51, 6348-6358; Choi et al., J. Am. Chem. Soc. 2010, 132, 1359-1370; Choi et al., Nat. Chem. Biol. 2010, 6, 133-139; and Baures et al., Bioorg. Med. Chem. 1998, 6, 1389-1401] to form a chemoselective amide bond with the K15 residue of TTR was assessed by reverse-phase-HPLC and liquid chromatography-mass spectrometry analysis. […] The binding of the covalent modifier A2 to K15A-TTR (in the absence of amide bond conjugation) was confirmed by incubating A2 with K15A-TTR in phosphate buffer (pH 7) followed by K15A immunoisolation using a Sepharose® resin-conjugated anti-TTR polyclonal antibody [Purkey et al., Proc. Natl. Acad. Sci. U.S.A. 2001, 98, 5566-5571].
Recombinant WT-TTR was expressed as described previously [Lashuel et al., Biochemistry 38:13560-13573 (1999)]. For analysis of test compounds with TTR, each compound (1.5 μL in DMSO, 1.44 mM) was added to 300 μL of WT-TTR or K15A mutant TTR (3.6 μM, 10 mM sodium phosphate, 100 mM KCl, 1 mM EDTA, pH 7.0). The samples were vortexed, and incubated for 18 hours at 25° C. Reverse phase high performance liquid chromatography (RP-HPLC) was performed on a Water 600 E multi-solvent delivery system, using a Waters 486 tunable absorbance detector, a 717 autosampler, and a ThermoHypersil Keystone Betabasic-18 column μ150 Å pore size, 3 μm particle size, and mobile phase A; 0.1% TFA in 95% H2O+5% CH3CN and mobile phase B, 0.1% TFA in 95% CH3CN+5% H2O). Linear gradients were run from 100:0 to 0:100 A:B for 27 minutes.

K15A-TTR [3] = molecular target: T2, K15A-TTR; assay: Fluorimetric assay with recombinant K15A-TTR; type: binding; conditions: 24 hour incubation
Protocol: [The source words this procedure for another variant and says it was used here with some conditions changed.] The excitation spectra are shown with dotted traces (λmax=328 nm), and emission spectra are adjacently (λmax=384 nm). Very low fluorescence resulted from 328 nm excitation of stilbene Compounds 4 or 2 alone in buffer (FIGS. 4A and 4B; traces substantially on the X-axis).
WT-TTR was expressed in an E. coli expression system and purified as described previously. [Lashuel et al., Biochemistry 1999, 38, 13560-13573] The covalent TTR modifiers (A1 or A2) or the non-covalent TTR ligand B2 (5 μL of a 1.44 mM solution in DMSO, final concentration: 7.2 μM) were added to 1 mL of a solution of WT-TTR homotetramer (0.2 mg/mL, 3.6 μM) in 10 mM phosphate, 100 mM KCl and 1 mM EDTA (pH 7.0 phosphate buffer) in a 2 mL Eppendorf tube. The samples were vortexed, and incubated for 18 h at 25° C. The fluorescence changes were monitored using a Varian Cary 50 spectrofluorometer at 20° C. in a 1 cm path length quartz cell. The excitation slit was set at 5 nm and the emission slit was set at […]. The samples were excited at 328 nm and the emission spectra were collected from 350 to 550 nm.
WT-TTR was expressed and purified from an E. coli expression system as described previously. [Lashuel et al., Biochemistry 1999, 38:13560]. The covalent modifiers (Compounds 4 or 2) or the non-covalent TTR ligand Compound B2 (5 μL of a 1.44 mM solution in DMSO) were added to 1 mL of a solution of WT-TTR (0.2 mg/mL, 3.6 μM) in 10 mM phosphate, 100 mM KCl and 1 mM EDTA (pH 7.0) in a 2 mL Eppendorf tube. The samples were vortexed, and incubated for 18 hours at 25° C. The fluorescence changes were monitored using a Varian Cary 50 spectrofluorometer at 20° C. in a 1 cm path length quartz cell. The excitation slits was set at 5 nm and the emission slits was set at […]. The samples were excited at 328 nm and the emission spectra were collected from 330 to 550 nm (FIG. 4). The time-dependent fluorescence changes were monitored in similar manner (FIG. 5).

V30M-TTR = molecular target: T3, V30M-TTR (Homo sapiens, UniProt P02766, V50M); assay: Acid-mediated V30M-TTR fibril formation assay (turbidity at 400 nm); type: biochemical; conditions: pH 4.4, 72 hours, 37° C.; for % Fibril Formation 7.2 μM (V30M-TTR): compound 7.2 μM; for % Fibril Formation […] (V30M-TTR): compound […]
T3 construct: composed of 127-residue β-sheet-rich subunits; made in house
Protocol: Compounds (5 μL of 1.44 mM solution in DMSO) were added to 495 μL of TTR (7.2 μM, in 10 mM sodium phosphate, 100 mM KCl, 1 mM EDTA, pH 7.0). The mixtures were vortexed and incubated (maintained) for 18 hours at 25° C. […] The solutions were vortexed to evenly distribute any precipitate, and turbidity was measured at 400 nm using a Hewlett Packard model 8453 UV-VIS Spectrophotometer.

[4] = molecular target: T4, TTR in human blood plasma (Homo sapiens, UniProt P02766); assay: Modification of TTR in human blood plasma (immunocapture, RP-HPLC); type: binding; conditions: compound 10.8 μM, 24 hours, 37° C.; maximum 50%
T4 construct: RP-HPLC analysis of TTR captured from human plasma; from tissue; host or cells: human blood plasma
Protocol: Compounds 1-4 (10.8 μM) were incubated for 24 hours at 37° C. with human plasma, wherein the TTR concentration is 3.6-5.4 μM.
Furthermore, compound A2 was evaluated to determine its ability to bind selectively to and then react chemoselectively with TTR over the 4000+ other proteins in human blood plasma. Compound A2 (10.8 μM) was incubated with human blood plasma (TTR concentration is 3.6-5.4 μM) for 24 hours at 37° C. before immunoisolating human TTR using a Sepharose® resin-conjugated anti-TTR polyclonal antibody [Purkey et al., Proc. Natl. Acad. Sci. U.S.A. 2001, 98, 5566-5571].
The modification ratio of TTR by kinetic stabilizers in human plasma was evaluated as described [Purkey et al., Proc. Natl. Acad. Sci. U.S.A. 98:5566-5571 (2001)] with minor modifications. Briefly, compounds (7.5 μL of 1.44 mM solution in DMSO) were added to 1 mL of human plasma and incubated at 37° C. for 24 hours on a rocker (30 rpm). A 1:1 (v/v) slurry of unfunctionalized Sepharose® resin in 10 mM Tris, 140 mM NaCl, pH 8.0 (TSA) was added and the solutions were incubated for 1 hour at 4° C. on a rocker plate, followed by brief centrifugation.
Two 400 μL aliquots of the supernatants were added to 300 μL of 1:1 (v:v) slurry of anti-TTR antibody-conjugated Sepharose® resin in TSA. The solutions were gently rocked at 4° C. for 20 minutes (30 rpm), centrifuged, and supernatants were removed. The resin was washed by shaking for 1 minute in 1 mL of TSA solution containing 0.05% saponin (three times) and then 1 mL of TSA solution (twice). The TTR and bound test compound were dissociated from the resin by adding 155 μL of triethylamine (100 mM, pH 11.5) and vortexing for 1 minute. After centrifugation, 135 μL of solution containing test compound and TTR was analyzed by RP-HPLC as described above except that the linear gradients were run from 100:0 to 0:100 A:B for 45 minutes.

WT-TTR [5] = molecular target: T1, WT-TTR; assay: Acid-mediated WT-TTR fibril formation assay (turbidity at 400 nm); type: biochemical; conditions: for IC50: % fibril formation after 72 hours, read-out: IC50 (apparent), inhibition of WT-TTR amyloidogenesis; for % Fibril Formation 7.2 μM (WT-TTR): compound 7.2 μM; for % Fibril Formation 7.2 μM (WT-TTR) / % Fibril Formation […] (WT-TTR): pH 4.4, 72 hours, 37° C.; for % Fibril Formation […] (WT-TTR): compound […]
Protocol: The mixtures were vortexed and incubated (maintained) for 18 hours at 25° C.

SMILES	reaction with K15A-TTR (in words) (K15A-TTR [2])	% Fibril Formation 7.2 μM (V30M-TTR) (V30M-TTR) [%]	% Fibril Formation […] (V30M-TTR) (V30M-TTR) [%]	% Modification of TTR subunits in Human Blood Plasma [4]	IC50 (WT-TTR [5]; WT-TTR 3.6 μM) [nM]	% Fibril Formation 7.2 μM (WT-TTR) (WT-TTR [5]; WT-TTR […]) [%]	% Fibril Formation […] (WT-TTR) (WT-TTR [5]; WT-TTR […]) [%]	further results
Cc1cc(/C=C/c2cc(C(=O)Oc3ccc(F)cc3)cc(N(C)C)c2)cc(C)c1O [Compound A1, (E)-4-fluorophenyl 3-(dimethylamino)-5-(4-hydroxy-3,5-dimethylstyryl)benzoate]	no conjugation							fluorescence after incubation with WT-TTR (in words) (WT-TTR [1]; phosphate buffer pH 7, 18 hours): bright blue fluorescence
CCCNC(=O)c1cccc(/C=C/c2cc(C)c(O)c(C)c2)c1 [Compound B1, (E)-3-(4-hydroxy-3,5-dimethylstyryl)-N-propylbenzamide]								time for binding to WT-TTR (WT-TTR [1]): ≤ 1 min; increase in fluorescence intensity with WT-TTR vs compound alone in buffer (WT-TTR [1]; WT-TTR […], compound 7.2 μM, 24 hours): about 400 fold; increase in fluorescence intensity with WT-TTR within 1 minute vs compound alone in buffer (WT-TTR [1]; time-dependent emission spectra): about 360 fold; increase in fluorescence intensity upon binding to K15A-TTR (K15A-TTR [3]): about 190 fold
O=C(Sc1ccccc1)c1cccc(/C=C/c2cc(Br)c(O)c(Br)c2)c1 [Compound 1, (E)-S-phenyl 3-(3,5-dibromo-4-hydroxystyryl)benzothioate]		3	17	36% (±0.4%)	1960 to 2260	2	12	IC50 (WT-TTR [5]; WT-TTR […]): 2000 nM
Cc1cc(/C=C/c2ccc(C(=O)Oc3ccccc3[N+](=O)[O-])cc2)cc(C)c1O [Compound 6]	more non-chemoselective conjugation							
Cc1cc(/C=C/c2cccc(C(=O)Oc3ccccc3[N+](=O)[O-])c2)cc(C)c1O [Compound 3, (E)-2-nitrophenyl 3-(4-hydroxy-3,5-dimethylstyryl)benzoate]		3	33	49% (±0.7%)	1960 to 2260	4	21	
